Patent US7232912B2, “Indazole compounds, pharmaceutical compositions, and methods for mediating or inhibiting cell proliferation” (Agouron Pharmaceuticals, Inc., priority 2000, dated 2007)

Legend:
human CHK1 = target: T1, human CHK1 (Homo sapiens, UniProt O14757); experiment: CHK1 Assay (coupled spectrophotometric); type: biochemical
T1 construct: C-terminally His-tagged full-length human CHK1 (FL-CHK1) was expressed using the baculovirus/insect cell system; made in house; host or cells: baculovirus/insect cells
T1 sequence (O14757 1-476): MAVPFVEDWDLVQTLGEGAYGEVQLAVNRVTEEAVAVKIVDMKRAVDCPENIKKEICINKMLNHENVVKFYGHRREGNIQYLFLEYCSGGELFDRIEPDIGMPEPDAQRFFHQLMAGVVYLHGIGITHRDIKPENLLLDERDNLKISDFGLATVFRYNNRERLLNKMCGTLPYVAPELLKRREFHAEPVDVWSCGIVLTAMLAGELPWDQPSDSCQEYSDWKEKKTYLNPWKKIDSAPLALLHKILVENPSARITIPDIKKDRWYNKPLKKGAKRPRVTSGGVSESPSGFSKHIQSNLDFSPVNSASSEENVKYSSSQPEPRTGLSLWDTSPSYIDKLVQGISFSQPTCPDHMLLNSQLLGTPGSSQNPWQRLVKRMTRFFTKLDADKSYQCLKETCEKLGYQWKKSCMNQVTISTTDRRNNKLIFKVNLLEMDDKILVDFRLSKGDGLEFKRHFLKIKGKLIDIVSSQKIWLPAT
Description: C-terminally His-tagged full-length human CHK1 (FL-CHK1) was expressed using the baculovirus/insect cell system. It contains 6 histidine residues (6×His-tag) at the C-terminus of the 476 amino acid human CHK1. The protein was purified by conventional chromatographic techniques.
The production of ADP from ATP that accompanies phosphoryl transfer to the synthetic substrate peptide Syntide-2 ([…]) was coupled to oxidation of NADH using phosphoenolpyruvate (PEP) through the actions of pyruvate kinase (PK) and lactic dehydrogenase (LDH). The oxidation of NADH was monitored by following the decrease of absorbance at 340 nm (ε340=6.22 cm^−1 mM^−1) using a HP8452 spectrophotometer. Typical reaction solutions contained: […]; 0.15 mM NADH; 28 units of LDH/ml; 16 units of PK/ml; 3 mM DTT; 0.125 mM Syntide-2; 0.15 mM ATP; 25 mM MgCl2 in 50 mM TRIS, pH 7.5; and 400 mM NaCl. Assays were initiated with 10 nM of FL-CHK1. Ki values were determined by measuring initial enzyme activity in the presence of varying concentrations of test compounds. The data were analyzed using Enzyme Kinetic and Kaleidagraph software.

CDK2/cyclin A = target: T2, CDK2/cyclin A (Homo sapiens, UniProt P24941); experiment: Inhibition of CDK2/Cyclin A Retinoblastoma Kinase Activity; type: biochemical; settings: apparent Ki
T2 construct: made in house; host or cells: CDK2: insect cells (baculovirus); cyclin A: E. coli
How it was run: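 Baculovirus-expressed CDK2 complexed with proteolyzed cyclin A, at 150 nM or 5 nM, phosphorylating an Rb fragment with 25 µM [32/33P]ATP in HEPES pH 7.4, 2% DMSO. Reactions run 20 min at 30°C, EDTA-stopped, filter-captured; apparent Ki from competitive or tight-binding competitive fits.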

FAK = experiment: Coupled Spectrophotometric (FAK) Assay; type: biochemical
Protocol: Coupled Spectrophotometric (FAK) Assay
Tyrosine kinase assays were monitored using a Beckman DU 650 Spectrophotometer. Production of ADP was coupled to oxidation of NADH using phosphoenolpyruvate (PEP) through the actions of pyruvate kinase (PK) and lactic dehydrogenase (LDH). The oxidation of NADH was monitored by following the decrease in absorbance at 340 nm (ε340=6.22 cm^−1 mM^−1). Typical reaction solutions contained: 1 mM PEP, 250 μM NADH, 50 units of LDH/mL, 20 units of PK/mL, 5 mM DTT, in 200 mM Hepes, pH 7.5 and varying concentrations of poly(E4Y1), ATP and MgCl2. Assays were initiated with 40 nM of […].

CDK4/cyclin D3 = CDK4/cyclin D3 (Homo sapiens, UniProt P11802); experiment: Inhibition of CDK4/Cyclin D Retinoblastoma Kinase Activity; type: biochemical; settings: apparent Ki
Chain of CDK4/cyclin D3 (P11802 2-303 limits assumed): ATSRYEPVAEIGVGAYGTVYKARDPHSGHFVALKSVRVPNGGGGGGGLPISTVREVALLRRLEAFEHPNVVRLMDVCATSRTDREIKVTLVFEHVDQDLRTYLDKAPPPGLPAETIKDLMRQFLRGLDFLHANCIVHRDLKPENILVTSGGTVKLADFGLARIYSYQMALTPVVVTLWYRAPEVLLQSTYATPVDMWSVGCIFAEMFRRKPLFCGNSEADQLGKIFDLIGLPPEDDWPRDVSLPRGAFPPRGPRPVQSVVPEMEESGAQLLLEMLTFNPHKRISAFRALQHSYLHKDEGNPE
Chain of CDK4/cyclin D3 (P30281 1-264 limits assumed, further chain): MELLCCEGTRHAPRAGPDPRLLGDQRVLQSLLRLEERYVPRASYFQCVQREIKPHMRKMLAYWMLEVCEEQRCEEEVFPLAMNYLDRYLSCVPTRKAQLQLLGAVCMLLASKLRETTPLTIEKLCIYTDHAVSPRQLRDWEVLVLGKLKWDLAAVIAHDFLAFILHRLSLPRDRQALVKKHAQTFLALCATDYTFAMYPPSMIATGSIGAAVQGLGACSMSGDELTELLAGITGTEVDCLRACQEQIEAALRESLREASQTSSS
How it was run: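 Human CDK4/cyclin D3 (full-length or cyclin D3 1–264), insect-cell expressed, at 5 or 50 nM with His-tagged Rb 386–928 substrate, 25 μM ATP plus [32P/33P]ATP, pH 7.4, 2% DMSO, 30 °C for 20 min; tight binders used 5 nM enzyme for 60 min. Filter-captured phospho-Rb quantified by phosphorimager. Apparent Ki from competitive or tight-binding inhibition fits.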

LCK tyrosine kinase = target: T3, LCK tyrosine kinase (Homo sapiens, UniProt P06239, C224D/P223M); experiment: Inhibition of phosphorylated LCK tyrosine kinase activity; type: biochemical; settings: read-out: LCK % Inhib. at 1 μM
T3 construct: starting from amino acid 223 to the end of the protein at amino acid 509; made in house; host or cells: insect cells
T3 sequence (P06239 223-509 P223M/C224D): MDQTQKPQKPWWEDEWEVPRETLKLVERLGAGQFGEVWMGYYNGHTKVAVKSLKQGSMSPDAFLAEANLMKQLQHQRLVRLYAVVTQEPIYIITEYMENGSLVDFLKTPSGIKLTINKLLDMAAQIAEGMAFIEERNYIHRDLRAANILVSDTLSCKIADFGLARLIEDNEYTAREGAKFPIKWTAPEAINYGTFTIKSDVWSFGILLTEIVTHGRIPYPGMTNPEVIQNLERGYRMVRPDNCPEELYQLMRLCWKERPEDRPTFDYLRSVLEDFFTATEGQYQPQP
Protocol: (§1) Inhibition of Phosphorylated FGF Receptor and LCK Tyrosine Kinase Activity
(§2) Cloning, expression and purification of the cytosolic domain of FGFR1 tyrosine kinase (amino acids 456–766) containing three amino acid substitutions (L457V, C488A, and C584S) were conducted as previously described (Mohammadi, M., Schlessinger, J., & Hubbard, S. R. (1996) Cell 86, 577–587). This domain was expressed in Sf9 insect cells using a baculovirus expression vector, and protein was purified using conventional techniques. The LCK tyrosine kinase was expressed in insect cells as an N-terminal deletion starting from amino acid 223 to the end of the protein at amino acid 509. The N-terminus of the protein also had two amino acid substitutions, P223M and C 224D. Kinases were purified using conventional chromatographic methods.
(§3) Tyrosine kinase activity was measured using a coupled, continuous spectrophotometric assay, in which production of phosphorylated poly(Glu, Tyr; 4:1) substrate and ADP is coupled to the pyruvate kinase-catalyzed transfer of a phosphate from phosphoenolpyruvate to ADP, with generation of pyruvate and regeneration of ATP. Pyruvate production is in turn coupled to the lactate dehydrogenase-catalyzed reduction of pyruvate to form lactate, with concomitant conversion of NADH to NAD+. Loss of NADH is monitored by measuring absorbance at 340 nm (see e.g., Technikova-Dobrova et al., “Spectrophotometric determination of functional characteristics of protein kinases with coupled enzymatic assay,” FEBS Letters, vol. 292 (1991), pp. 69–72). Enzyme activity was measured in the presence of 200 mM HEPES (pH 7.5), 2 mM phosphoenolpyruvate, 0.3 mM NADH, 20 mM MgCl2, 100 μM ATP, 5 mM DTT, 5.1 or 25 mM poly (Glu,Tyr) 4:1 for P-FGF or P-LCK assays, respectively, and 15 units/mL each of pyruvate kinase and lactate dehydrogenase. Phosphorylated FGF receptor kinase was present at 100 nM and phosphorylated LCK kinase was present at 50 nM. Assays were performed under initial rate conditions at 37° C., and rates were corrected for any background rate measured in the absence of enzyme. Percent inhibition was calculated relative to control enzyme assayed in the presence of 2% (v/v) DMSO.

FGFR1 tyrosine kinase = target: T4, FGFR1 tyrosine kinase (Homo sapiens, UniProt P11362, C488A/C584S/L457V); experiment: Inhibition of phosphorylated FGF receptor tyrosine kinase activity; type: biochemical; settings: read-out: FGF % Inhib. at 1 μM
T4 construct: the cytosolic domain of FGFR1 tyrosine kinase (amino acids 456–766); made in house; host or cells: Sf9 insect cells (baculovirus)
T4 sequence (P11362 456-766 L457V/C488A/C584S): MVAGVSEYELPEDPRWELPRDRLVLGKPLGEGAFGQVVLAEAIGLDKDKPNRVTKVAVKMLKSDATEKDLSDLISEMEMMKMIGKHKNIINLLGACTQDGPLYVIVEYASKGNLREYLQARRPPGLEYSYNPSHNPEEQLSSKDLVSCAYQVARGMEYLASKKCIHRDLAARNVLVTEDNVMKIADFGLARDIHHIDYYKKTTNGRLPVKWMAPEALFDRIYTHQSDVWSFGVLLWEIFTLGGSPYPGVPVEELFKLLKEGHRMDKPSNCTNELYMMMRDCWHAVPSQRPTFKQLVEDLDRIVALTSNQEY
Protocol: as §1, §2, §3

HCT 116 cell line = experiment: Inhibition of Cell Growth (MTT tetrazolium salt assay); type: cell-based; settings: Homo sapiens, HCT 116, MTT; for IC50: 50% inhibition of growth, read-out: HCT 116 IC50; for IC90: read-out: HCT 116 IC90
How it was run: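 HCT 116 cells in McCoy's 5A were dosed 4 h after plating, in 0.5% (v/v) DMSO, then held 4–6 days at 37 °C, 5% CO2. MTT at 0.2 mg/mL final for 4 h; DMSO-solubilized formazan read at 540 nm. IC50 taken from the linear part of a semi-log plot versus DMSO-only controls.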

Structure (SMILES)	Ki (human CHK1) [nM]	Ki (CDK2/cyclin A) [nM]	Ki (CDK4/cyclin D3) [nM]	inhibition at 20 µM (human CHK1) [%]	melting point [°C]	inhibition at 1 µM (LCK tyrosine kinase) [%]	inhibition at 1 µM (FGFR1 tyrosine kinase) [%]	IC50 (HCT 116 cell line) [nM]	IC90 (HCT 116 cell line) [nM]	FAK % Inhibition at 1 μM (FAK) [%]
C(=C\c1n[nH]c2ccc(-c3ccccc3)cc12)/c1ccccc1 [Example 1, 5-Phenyl-3-Styryl-1H-Indazole]	6700	11000	1700	–	–	–	–	–	–	32
OC1CCN(c2ccc3[nH]nc(/C=C/c4ccccc4)c3c2)CC1 [Example 27, 1-[3-((E)Styryl)-1H-indazol-5-yl]-piperidin-4-ol]	–	1600	1500	–	–	–	–	–	–	44
OC1CCCN(c2ccc3[nH]nc(/C=C/c4ccccc4)c3c2)C1 (stereo not shown) [Example 28, 1-[3-((E)Styryl)-1H-indazol-5-yl]-piperidin-3-ol]	–	720	680	–	–	–	–	–	–	61
Clc1ccncc1-c1ccc2[nH]nc(/C=C/c3ccccc3)c2c1 [Example 42, 5-(4-Chloro-pyridin-3-yl)-3-(E)-styryl-1H-indazole]	–	17.2	8.2	–	–	–	70.3	3000	5000	78
Nc1cccc2c(-c3ccc4[nH]nc(/C=C/c5ccccc5)c4c3)cncc12 [Example 45]	–	17	12	–	–	–	58.7	2100	5000	63
Cc1c(-c2ccncc2)cncc1-c1ccc2[nH]nc(-c3nc4c(CN(C)C)cccc4[nH]3)c2c1 [Example 68, Dimethyl-{2-[5-(4-methyl-[3,4′]bipyridinyl-5-yl)-1H-indazol-3-yl]-1H-benzoimidazol-4-ylmethyl}-amine]	–	1.1	4.7	–	–	–	12.6	160	600	–
Nc1ccc2[nH]nc(-c3ccc[nH]3)c2c1 [Example 84, 5-Amino-3-(2-Pyrrolyl)-1H-indazole]	22500	28000	34000	–	–	–	–	–	–	–

Now from value to compound, other results behind:

Ki (human CHK1) [nM]	Ki (CDK2/cyclin A) [nM]	Ki (CDK4/cyclin D3) [nM]	inhibition at 20 µM (human CHK1) [%]	melting point [°C]	inhibition at 1 µM (LCK tyrosine kinase) [%]	inhibition at 1 µM (FGFR1 tyrosine kinase) [%]	IC50 (HCT 116 cell line) [nM]	IC90 (HCT 116 cell line) [nM]	Structure (SMILES)	FAK % Inhibition at 1 μM (FAK) [%]
–	240	370	75	80 to 82	–	–	–	–	c1ccc(-c2ccc3[nH]nc(-c4nc5ccccc5[nH]4)c3c2)cc1 [Example 3, 3-(1H-Benzoimidazol-2-yl)-5-Phenyl-1H-indazole]	–
–	690	480	56	–	–	–	–	–	COc1cccc(-c2ccc3[nH]nc(-c4nc5ccccc5[nH]4)c3c2)c1 [Example 5, 3-(1H-Benzoimidazol-2-yl)-5-(3-methoxyphenyl)-1H-indazole]	–
8550	49	237	–	–	23	54	–	–	Cc1c(O)cccc1-c1ccc2[nH]nc(-c3nc4c(O)cccc4[nH]3)c2c1 [Example 21, 2-[5-(3-Hydroxy-2-methyl-phenyl)-1H-indazol-3-yl]-1H-benzoimidazol-4-ol]	–
–	73	253	–	–	–	89.6	1800	5000	Oc1cc(F)c(-c2ccc3[nH]nc(-c4nc5ccccc5[nH]4)c3c2)c(F)c1 [Example 50, 4-[-3-(1H-Benzoimidazol-2-yl)-1H-indazol-5-yl]-3,5-difluoro-phenol]	–
–	1	2.8	–	–	–	44.1	390	1300	Cc1c(-c2ccc3[nH]nc(-c4nc5ccccc5[nH]4)c3c2)cncc1-c1c[nH]cn1 [Example 65, 3-(1H-Benzoimidazol-2-yl)-5-[5-(1H-imidazol-4-yl)-4-methyl-pyridin-3-yl]-1H-indazole]	–
